Measured values: patent US8163909B2, “Substituted hydroxyethyl amine compounds as beta-secretase modulators and methods of use” (Amgen Inc., priority 2007, dated 2012)
Where two headings read alike, the source gives them in different places.

What was measured:
[1] = target: Beta Secretase enzyme (BACE) (Homo sapiens, UniProt P56817); assay: In vitro enzymatic BACE FRET (fluorescence resonance energy transfer) assay; assay type: biochemical;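 note: fluorescence read after 1 h with 50 nM quenched peptide substrate spanning the BACE cleavage site, in pH 4.2 acetate buffer containing 10% DMSO and nonionic detergent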
Chain of Beta Secretase enzyme (BACE) (P56817 46-501): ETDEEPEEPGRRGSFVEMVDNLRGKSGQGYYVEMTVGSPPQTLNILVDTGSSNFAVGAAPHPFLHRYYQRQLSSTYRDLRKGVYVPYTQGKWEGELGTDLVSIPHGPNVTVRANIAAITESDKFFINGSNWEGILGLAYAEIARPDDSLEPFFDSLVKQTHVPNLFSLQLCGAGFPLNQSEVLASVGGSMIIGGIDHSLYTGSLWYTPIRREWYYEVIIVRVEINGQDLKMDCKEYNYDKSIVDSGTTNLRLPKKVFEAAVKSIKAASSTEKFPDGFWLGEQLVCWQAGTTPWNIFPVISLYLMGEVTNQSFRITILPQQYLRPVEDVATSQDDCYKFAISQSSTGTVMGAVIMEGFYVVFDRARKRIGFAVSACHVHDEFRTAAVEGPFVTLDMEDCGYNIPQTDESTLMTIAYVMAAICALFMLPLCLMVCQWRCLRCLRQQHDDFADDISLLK

[2] = test system: Aβ40 in conditioned medium of cells stably expressing Amyloid Precursor Protein (APP); assay: In vitro BACE cell-based assay (Aβ40 in conditioned medium, sandwich ELISA); conditions: Homo sapiens;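 note: compounds added as a dilution series, secreted peptide quantified by europium time-resolved fluorescence readout, potency fitted from percent of control versus compound concentration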
CYP3A4 (CYP3A) = CYP3A4 (CYP3A) (Homo sapiens, UniProt P08684); assay: in vitro; conditions: microsomes, pH 7.4;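 note: inhibition of CYP3A-mediated 1-hydroxymidazolam formation after 10 min incubation with NADPH, quantified by HPLC MS relative to metabolite produced without test compound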
Chain of CYP3A4 (CYP3A) (P08684 2-503): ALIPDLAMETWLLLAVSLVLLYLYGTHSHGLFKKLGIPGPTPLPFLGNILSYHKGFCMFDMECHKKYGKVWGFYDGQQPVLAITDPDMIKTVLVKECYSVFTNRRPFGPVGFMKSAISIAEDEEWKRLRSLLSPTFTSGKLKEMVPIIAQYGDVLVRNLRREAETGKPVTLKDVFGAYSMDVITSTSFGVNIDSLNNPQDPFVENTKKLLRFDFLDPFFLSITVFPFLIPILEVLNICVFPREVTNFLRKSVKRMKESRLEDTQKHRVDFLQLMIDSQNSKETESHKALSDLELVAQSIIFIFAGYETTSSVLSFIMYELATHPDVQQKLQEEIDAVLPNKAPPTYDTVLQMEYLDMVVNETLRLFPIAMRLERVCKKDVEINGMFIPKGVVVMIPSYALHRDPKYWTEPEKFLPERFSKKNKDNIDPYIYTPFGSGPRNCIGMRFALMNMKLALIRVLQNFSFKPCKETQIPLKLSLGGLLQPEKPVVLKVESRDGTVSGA

[3] = Microsomal stability assay, rat liver microsomes;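 note: rat liver microsomes (0.25 mg/mL) with about 1 µM compound plus 1 mM NADPH, pH 7.4, 37 °C for 30 min, parent left measured by LC-MS/MS against 0 min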
[4] = Microsomal stability assay, human liver microsomes;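 note: pooled human liver microsomes at 0.25 mg/mL with 1 µM compound and NADPH at 37 °C, pH 7.4, for 30 min, unchanged parent quantified by LC-MS/MS against the 0 min sample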
CYP2D6 = CYP2D6 (Homo sapiens, UniProt P10635); assay: CYP2D6 inhibition assay (bufuralol, pooled human liver microsomes)
Chain of CYP2D6 (P10635 whole entry): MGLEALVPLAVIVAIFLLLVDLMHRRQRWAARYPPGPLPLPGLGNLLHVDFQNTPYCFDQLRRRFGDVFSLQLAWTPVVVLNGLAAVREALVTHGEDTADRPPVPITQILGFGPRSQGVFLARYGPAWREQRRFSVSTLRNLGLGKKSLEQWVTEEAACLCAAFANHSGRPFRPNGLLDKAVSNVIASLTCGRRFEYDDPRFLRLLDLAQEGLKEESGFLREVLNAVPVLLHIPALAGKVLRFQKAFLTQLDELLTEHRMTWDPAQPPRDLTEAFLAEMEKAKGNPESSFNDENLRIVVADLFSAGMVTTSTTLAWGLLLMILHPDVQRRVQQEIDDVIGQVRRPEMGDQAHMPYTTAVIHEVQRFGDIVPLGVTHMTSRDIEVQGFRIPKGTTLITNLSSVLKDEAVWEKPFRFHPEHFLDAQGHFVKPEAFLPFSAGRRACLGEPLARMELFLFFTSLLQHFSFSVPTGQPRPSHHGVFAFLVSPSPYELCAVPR

[5] = read-out: BACE1 FRET assay (IC50)
[6] = HEK293, HEK cells, read-out: HEK cell assay (IC50)
[7] = BACE enzyme assay, read-out: BACE1 FRET assay
[8] = HEK293, HEK cells, read-out: HEK cell assay
[9] = 2D6 IC50 (uM), CYP enzyme inhibition
[10] = BACE enzyme assay, IC50's in uM, read-out: BACE1 FRET assay
[11] = HEK293, HEK cell-based assay, IC50's in uM, read-out: HEK cell assay
[12] = 2D6 IC50, CYP enzyme inhibition
[13] = BACE enzyme assay IC50, read-out: BACE1 FRET assay
[14] = HEK293, HEK cell-based assay IC50, read-out: HEK cell assay
[15] = 2D6 IC50 (uM), CYP2D6 inhibition

SMILES | IC50 (CYP3A4 (CYP3A)) [nM] | RLM ([3]; rat liver microsomes) [µL/min/mg] | HLM ([4]; human liver microsomes) [µL/min/mg] | RLM ([3]; rat liver microsomal data) [µL/min/mg] | HLM ([4]; human liver microsomal data) [µL/min/mg] | IC50 (CYP2D6; [9]) [µM] | IC50 [1, 10] [µM] | IC50 [2, 11] [µM] | other results
CO[C@H](C)C(=O)N[C@@H](Cc1ccc2c(c1)OCO2)[C@H](O)CN[C@H]1CC2(CCC2)Oc2cnc(CC(C)C)cc21 [compound 666] | ≤ 30 | 228 | 140 |  |  |  |  |  | IC50 [1, 5]: 0.124 µM; IC50 [2, 6]: 0.175 µM; IC50 (CYP2D6; 2D6 IC50, CYP2D6 inhibition): 2.4 µM
CC(C)Cc1cnc2c(c1)[C@@H](NC[C@@H](O)[C@H](Cc1ccc3c(c1)OCO3)NC(=O)[C@@H]1CCCO1)CC1(CCC1)O2 [compound 548] | 300 |  |  | 184 | 57 | 3.7 |  |  | IC50 [1, 7]: 0.074 µM; IC50 [2, 8]: 0.623 µM
COCC(=O)N[C@@H](Cc1cccc(-c2ncc(C)s2)c1)[C@H](O)CN[C@H]1CC2(CCC2)Oc2ncc(CC(C)(C)C)cc21 [compound 759, N-((1S,2R)-3-(((4′S)-6′-(2,2-dimethylpropyl)-3′,4′-dihydrospiro[cyclobutane-1,2′-pyrano[2,3-b]pyridin]-4′-yl)amino)-2-hydroxy-1-(3-(5-methyl-1,3-thiazol-2-yl)benzyl)propyl)-2-methoxyacetamide] | 300 |  |  | 399 | 436 | 1.5 | 0.021 | 0.071 | 
COCC(=O)N[C@@H](Cc1cccc(-n2cccn2)c1)[C@H](O)CN[C@H]1CC2(CCC2)Oc2ncc(CC(C)(C)C)cc21 [compound 854] | 600 |  |  | 210 | 515 |  | 0.007 |  | IC50 ([2]; HEK293, cell-based assay, HEK cells, IC50's in uM, read-out: HEK cell assay): 0.007 µM; IC50 (CYP2D6; [12]): 2.5 µM
CC#Cc1cnc2c(c1)[C@@H](NC[C@@H](O)[C@H](Cc1cccc(-c3nccs3)c1)NC(=O)COC)CC1(CCC1)O2 [compound 811] | 300 |  |  | 54 | 36 | 1 | 0.309 | 0.736 | 
CO[C@H](C)C(=O)N[C@@H](Cc1ccc(F)cc1)[C@H](O)CN[C@H]1CC2(CCC2)Oc2c1cc(CC(C)C)cc2-n1ccnc1 [compound 482] | 100 |  |  | 194 | 27 |  |  |  | IC50 ([1]; Table 2, read-out: BACE1 FRET assay): 0.15 µM; IC50 ([2]; HEK293, Table 2, HEK cells, read-out: HEK cell assay): 0.422 µM; IC50 (CYP2D6; [12]): 3.6 µM
CC(C)(C)Cc1cnc2c(c1)[C@@H](NC[C@@H](O)[C@H](Cc1ccc(F)cc1)NC(=O)[C@@H]1CN(Cc3nccs3)CCO1)CC1(CCC1)O2 [compound 769] | 400 |  |  | 333 | 706 | 5.2 | 0.01 | 0.013 | 
Cc1csc(CN2CCO[C@H](C(=O)N[C@@H](Cc3ccc(F)cc3)[C@H](O)CN[C@H]3CC4(CCC4)Oc4ncc(CC(C)(C)C)cc43)C2)n1 [compound 734] | 100 | 335 | 543 |  |  |  |  |  | IC50 [1, 13]: 0.012 µM; IC50 [2, 14]: 0.014 µM; IC50 (CYP2D6; [15]): 2.4 µM
CO[C@H](C)C(=O)N[C@@H](Cc1ccc(F)c(-c2nccs2)c1)[C@H](O)CN[C@H]1CC2(CCC2)Oc2ncc(CC(C)(C)F)cc21 [compound 760] | 300 |  |  | 31 | 26 | 0.8 | 0.031 | 0.1 | 
COCC(=O)N[C@H](Cc1cccc(-c2nccs2)c1)[C@@H](O)CN[C@H]1CC2(CCC2)Oc2ccc(CC(C)(C)C)cc21 [compound 701, N-((1R,2S)-3-(((4S)-6-(2,2-dimethylpropyl)-3,4-dihydrospiro[chromene-2,1′-cyclobutan]-4-yl)amino)-2-hydroxy-1-(3-(1,3-thiazol-2-yl)benzyl)propyl)-2-methoxyacetamide] | 200 | 160 | 137 |  |  |  |  |  | IC50 [1, 13]: 0.008 µM; IC50 [2, 14]: 0.033 µM; IC50 (CYP2D6; [15]): 0.7 µM
Cc1ccccc1CN1CCO[C@H](C(=O)N[C@@H](Cc2ccc(F)cc2)[C@H](O)CN[C@H]2CC3(CCC3)Oc3ncc(CC(C)(C)C)cc32)C1 [compound 697] | 200 | 399 | 775 |  |  |  |  |  | IC50 [1, 13]: 0.087 µM; IC50 [2, 14]: 0.143 µM; IC50 (CYP2D6; [15]): 2.7 µM
CC(C)(C)CCC(=O)N[C@@H](Cc1ccccc1)[C@H](O)CN[C@H]1CC2(CCC2)Oc2ncc(CC(C)(C)C)cc21 [compound 819] | 200 |  |  | 543 | 736 | 2 | 0.013 | 0.074 | 
CO[C@H](C)C(=O)N[C@@H](Cc1ccccc1)[C@H](O)CN[C@H]1CC2(CCC2)Oc2c1cc(CC(C)(C)C)nc2-c1ccncc1 [compound 543] | 100 |  |  | 242 | 41 | 2.6 |  |  | IC50 [1, 7]: 0.037 µM; IC50 [2, 8]: 0.255 µM
CO[C@H](C)C(=O)N[C@@H](Cc1ccccc1)[C@H](O)CN[C@H]1CC2(CCC2)Oc2c1cc(CC(C)C)cc2-n1ccnc1 [compound 547] | 100 |  |  | 260 | 53 | 4.4 |  |  | IC50 [1, 7]: 0.042 µM; IC50 [2, 8]: 0.073 µM
COCC(=O)N[C@@H](Cc1cc(F)cc(F)c1)[C@H](O)CN[C@H]1CC2(CCC2)Oc2c(-c3cccnc3)cc(CC(C)(C)C)cc21 [compound 489] | 400 |  |  | 775 | 399 | 3.9 |  |  | IC50 [1, 7]: 0.007 µM; IC50 [2, 8]: 0.02 µM
COCC(=O)N[C@@H](Cc1cccc(F)c1)[C@H](O)CN[C@H]1CC2(CCC2)Oc2nc3c(cc21)[C@H](C(C)C)CO3 [compound 763] | 2000 |  |  | 399 | 399 | 2 | 2.5 | 1.3 | 
CC(C)(C)Cc1cnc2c(c1)[C@@H](NC[C@@H](O)[C@H](Cc1ccc3c(c1)OCO3)NC(=O)[C@@H]1CCO1)CC1(CCC1)O2 [compound 525] | 200 |  |  | 101 | 32 | 3.1 |  |  | IC50 [1, 7]: 0.021 µM; IC50 [2, 8]: 0.019 µM
CO[C@H](C)C(=O)N[C@@H](Cc1cccc(F)c1)[C@H](O)CN[C@H]1CC2(CCC2)Oc2c(-c3ccncc3)cc(CC(C)(C)C)cc21 [compound 585] | 50 | 120 | 65.5 |  |  |  |  |  | IC50 [1, 5]: 0.016 µM; IC50 [2, 6]: 0.012 µM; IC50 (CYP2D6; 2D6 IC50, CYP2D6 inhibition): 0.75 µM
CC(=O)N[C@@H](Cc1cc(Br)c2c(c1)OCO2)[C@H](O)CN[C@H]1CC2(CCC2)Oc2ncc(CC(C)(C)F)cc21 [compound 624] | 160 | 150 | 48 |  |  |  |  |  | IC50 [1, 5]: 0.2 µM; IC50 [2, 6]: 0.081 µM; IC50 (CYP2D6; 2D6 IC50, CYP2D6 inhibition): 1.2 µM
CCC(=O)N[C@@H](Cc1ccc2c(c1)OCO2)[C@H](O)CN[C@H]1CC2(CCC2)Oc2ncc(CC(C)C)cc21 [compound 726, N-((1S,2R)-1-(1,3-benzodioxol-5-ylmethyl)-2-hydroxy-3-(((4′S)-6′-(2-methylpropyl)-3′,4′-dihydrospiro[cyclobutane-1,2′-pyrano[2,3-b]pyridin]-4′-yl)amino)propyl)propanamide] | ≤ 30 | 173 | 34 |  |  |  |  |  | IC50 [1, 13]: 0.044 µM; IC50 [2, 14]: 0.048 µM; IC50 (CYP2D6; [15]): 1.4 µM
